Reference: the supplement of paper PMC10702517
± gives the standard deviation.

What was measured:
[1] = chemical recovery into PDMS from spiked human plasma; higher = better extraction; settings: pooled human plasma, extraction method: PES with PDMS
[2] = chemical recovery by SPE of plasma after PDMS sampling; higher = better extraction; settings: pooled human plasma, extraction method: HLB SPE of plasma after PES
[3] = chemical recovery from spiked human plasma; higher = better extraction; settings: pooled human plasma
[4] = extraction method: PES+SPE (3 d PDMS equilibration then HLB SPE)
[5] = extraction method: SPE only (HLB 96-well)
[6] = extraction method: SPE only (HLB 96-well), PES comparison experiment
[7] = extraction method: solvent precipitation (ACN + hexane)
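For chemical recovery by SPE of plasma after PDMS sampling in this document: over 400 spiked chemicals quantified by LC-HRMS or GC-HRMS via internal standard calibration, recovery relative to spike mix added to unspiked plasma extract to correct matrix effects.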

SMILES | chemical recovery into PDMS ([1]; equilibration time (d): 1) [%] | chemical recovery into PDMS ([1]; equilibration time (d): 3) [%] | chemical recovery into PDMS ([1]; equilibration time (d): 6) [%] | chemical recovery by SPE of plasma ([2]; equilibration time (d): 1) [%] | chemical recovery by SPE of plasma ([2]; equilibration time (d): 3) [%] | chemical recovery by SPE of plasma ([2]; equilibration time (d): 6) [%] | chemical recovery [3, 4] [%] | chemical recovery [3, 5] [%] | chemical recovery [3, 6] [%] | chemical recovery [3, 7] [%]
c1ccc2c(c1)[nH]c1cnccc12 [Norharmane] | 24.8 ± 1.2 | 28.3 ± 0.84 | 29 ± 1.6 | 3.67 ± 0.43 | 2.75 ± 0.47 | 1.79 ± 0.061 | 25.1 ± 5.9 | 39.6 ± 7.7 | 48 ± 6.7 | 77.7 ± 5.3
CNC(=O)CSP(=O)(OC)OC [Omethoate] | 4.04 ± 3.2 | 5.92 ± 3.5 | 5.94 ± 4.2 | – | 13.5 ± 2.3 | – | – | 12.4 ± 5.1 | 40.1 ± 8.6 | –
CCCN(CCC)c1c([N+](=O)[O-])cc(S(N)(=O)=O)cc1[N+](=O)[O-] [Oryzalin] | 6.21 ± 0.56 | 10 ± 0.76 | 11.1 ± 1.2 | 39.2 ± 5.2 | 33.9 ± 3 | 27.7 ± 1.7 | – | – | 49.6 ± 5.5 | –
O=C1Nc2ccc(Cl)cc2C(c2ccccc2)=NC1O (centres undefined) [Oxazepam] | 1.81 ± 0.18 | 3.65 ± 0.36 | 3.9 ± 0.52 | 29.1 ± 4 | 30.4 ± 2.4 | 27.7 ± 1.9 | 41.3 ± 2.3 | 38 ± 3.2 | 46.6 ± 6 | 73.9 ± 3.5
Clc1ccc(Cl)c(-c2ccccc2Cl)c1 [PCB18] | 48.2 ± 2.5 | 50.3 ± 10 | 46.5 ± 10 | 0.716 ± 0.48 | 0.693 ± 0.67 | 0.249 ± 0.43 | – | – | 10 ± 1.9 | –
Clc1ccc(Cl)c(-c2cccc(Cl)c2Cl)c1 [PCB44] | 83.5 ± 2.1 | 90.2 ± 12 | 99.1 ± 11 | 1.35 ± 0.87 | 1.34 ± 0.13 | 1.42 ± 0.29 | 44 ± 11 | 3.94 ± 0.74 | 18.4 ± 4 | –
Clc1ccc(Cl)c(-c2cc(Cl)c(Cl)cc2Cl)c1 [PCB101] | 88.4 ± 5.7 | 98.4 ± 14 | 96.9 ± 3.5 | 1.75 ± 1.3 | 1.62 ± 0.22 | 1.45 ± 0.38 | 54.76 ± 0.33 | 1.78 ± 0.57 | 14 ± 2.6 | 91.2 ± 10
Clc1ccc(-c2cc(Cl)c(Cl)cc2Cl)cc1Cl [PCB118] | 74.9 ± 4.3 | – | – | 2.43 ± 1.6 | 1.87 ± 0.24 | 1.71 ± 0.54 | – | 0.333 ± 0.1 | 3.8 ± 7.6 | 32 ± 1.2
Clc1cc(Cl)c(-c2ccc(Cl)c(Cl)c2Cl)cc1Cl [PCB138] | 67.4 ± 9.5 | 91.8 ± 1.4 | 89.4 ± 5.2 | 4.29 ± 2.9 | 1.78 ± 0.29 | 1.33 ± 0.48 | 61.3 ± 12 | 2.27 ± 0.8 | 11.2 ± 2.8 | 81.6 ± 6.5
Clc1cc(Cl)c(-c2c(Cl)ccc(Cl)c2Cl)cc1Cl [PCB149] | – | 103 ± 14 | 100 ± 8.1 | 3.35 ± 2.2 | 1.54 ± 0.15 | 1.29 ± 0.33 | 56.86 ± 0.52 | 4.51 ± 1.5 | 10.4 ± 2 | 91 ± 6.8
Clc1cc(Cl)c(-c2cc(Cl)c(Cl)cc2Cl)cc1Cl [PCB153] | 55.1 ± 6.8 | 86.4 ± 3.6 | 82.2 ± 2.6 | 4.72 ± 3 | 2.08 ± 0.28 | 1.44 ± 0.58 | 62.9 ± 9 | 1.64 ± 0.63 | 10.3 ± 2.5 | 77.6 ± 3.5
Clc1cc(Cl)c(-c2cc(Cl)c(Cl)c(Cl)c2Cl)cc1Cl [PCB180] | – | 67.8 ± 8 | 73.3 ± 5.7 | 4.51 ± 2.9 | 3.71 ± 1 | 1.43 ± 0.49 | 40.2 ± 2.1 | 1.45 ± 0.68 | – | –
Clc1cc(-c2cc(Cl)c(Cl)c(Cl)c2Cl)c(Cl)c(Cl)c1Cl [PCB194] | – | 54.4 ± 6.3 | 63.4 ± 5.4 | 3.6 ± 2.3 | 5.05 ± 1.1 | 2.4 ± 0.65 | 38.3 ± 2.4 | 0.915 ± 0.53 | – | 2.72 ± 0.18
Fc1ccc([C@@H]2CCNC[C@H]2COc2ccc3c(c2)OCO3)cc1 [Paroxetine] | 0.404 ± 0.21 | 0.313 ± 0.1 | 0.637 ± 0.5 | 2.65 ± 0.22 | 3.11 ± 0.29 | 2.27 ± 0.16 | 3.9 ± 1.1 | 63.1 ± 3.8 | 42.8 ± 9.2 | 61.7 ± 1.7
CCC(CC)Nc1c([N+](=O)[O-])cc(C)c(C)c1[N+](=O)[O-] [Pendimethalin] | 45.8 ± 3 | 46.4 ± 4.9 | 47.5 ± 6.3 | – | 0.1 ± 0.17 | – | – | 39 ± 11 | 32.3 ± 7.6 | 87.6 ± 9.3
CC(=O)CCCCn1c(=O)c2c(ncn2C)n(C)c1=O [Pentoxifylline] | 17.2 ± 0.99 | 24.5 ± 3.9 | 27 ± 2.1 | 37.9 ± 5.9 | 33.6 ± 3.5 | 25.1 ± 4.3 | 57.2 ± 6.1 | 46.9 ± 3.7 | 52.1 ± 4.9 | 76.5 ± 3.2
c1cc2cccc3c4cccc5cccc(c(c1)c23)c54 [Perylene] | 73.8 ± 6.2 | 71.9 ± 9.9 | 79.5 ± 6 | 0.65 ± 0.62 | 1.03 ± 0.53 | 1.2 ± 0.41 | – | 1.66 ± 0.56 | – | 64.2 ± 5.1
CCOCCN(C(=O)CCl)C(=C(C)C)c1ccccc1 [Pethoxamid] | 41 ± 2.5 | 43.5 ± 3.3 | 43.2 ± 1.5 | – | 0.187 ± 0.32 | – | – | – | 49.5 ± 6.9 | 56.3 ± 2.8
O=S(=O)(O)c1ccc2[nH]c(-c3ccccc3)nc2c1 [Phenylbenzimidazole sulfonic acid] | 0.124 ± 0.24 | – | – | 42.2 ± 5.2 | 49 ± 1.8 | 45.8 ± 8.4 | 43.2 ± 2.9 | 36.9 ± 3.3 | 52 ± 5.8 | 27.9 ± 3.1
CO/C=C(/C(=O)OC)c1ccccc1COc1cccc(C(F)(F)F)n1 [Picoxystrobin] | 47 ± 3.2 | 48.5 ± 5.8 | 48.7 ± 2.7 | 1.61 ± 0.23 | 2.06 ± 0.34 | 0.862 ± 0.75 | – | 38.3 ± 2.8 | 47.8 ± 7.1 | 63.7 ± 4.3
O=C(/C=C/C=C/c1ccc2c(c1)OCO2)N1CCCCC1 [Piperine] | 34.8 ± 3.2 | 39.3 ± 4.2 | 36.6 ± 1.7 | 1.77 ± 0.44 | 1.85 ± 0.37 | 0.965 ± 0.074 | – | 40.7 ± 2.7 | 56.1 ± 7.1 | 83.6 ± 4
CCCCOCCOCCOCc1cc2c(cc1CCC)OCO2 [Piperonyl butoxide] | 46.4 ± 3.2 | 48.7 ± 3.9 | 46 ± 2.6 | 0.249 ± 0.12 | 0.337 ± 0.29 | 0.24 ± 0.013 | – | – | 39.5 ± 6.4 | –
Cc1nc(N(C)C)nc(OC(=O)N(C)C)c1C [Pirimicarb] | 29.3 ± 1.2 | 33.3 ± 1.8 | 34 ± 1.7 | 6.05 ± 0.55 | 6.09 ± 1 | 4.09 ± 0.28 | 55.6 ± 8 | 34.3 ± 1.5 | 41.4 ± 5.3 | 64.5 ± 2.5
CCN(CC)c1nc(C)cc(OP(=S)(OC)OC)n1 [Pirimiphos-methyl] | 29.7 ± 4.3 | 33.5 ± 3.9 | 32.1 ± 0.42 | 0.602 ± 0.13 | 0.453 ± 0.41 | 0.275 ± 0.24 | – | 36.4 ± 3.4 | 42.9 ± 8.2 | 68.8 ± 5.2
C[C@]12C=CC(=O)C=C1CC[C@@H]1[C@@H]2C(=O)C[C@@]2(C)[C@H]1CC[C@]2(O)C(=O)CO [Prednisone] | – | 0.176 ± 0.18 | 0.265 ± 0.091 | 41.6 ± 4.3 | 43.7 ± 5.1 | 41.1 ± 2.4 | – | – | 45.5 ± 5.8 | –
CCCNCCOc1c(Cl)cc(Cl)cc1Cl [Prochloraz BTS403-48] | 0.602 ± 0.13 | 0.604 ± 0.12 | 0.862 ± 0.22 | 0.247 ± 0.057 | 0.287 ± 0.11 | 0.165 ± 0.0069 | 1.17 ± 0.37 | 47.1 ± 2 | 46.2 ± 5.1 | 71.2 ± 3
